These compounds were tested against T1, human CCR5 (Homo sapiens, UniProt P51681) (assay: Inhibition of [125I]-RANTES binding to human CCR5 in CHO/CCR5 cells (CCR5 antagonistic activity)). Conditions: Test Compound 1 μM, 100 pM [125I]-RANTES, room temperature, 40 minutes, read-out: Inhibition Rate (CCR5 binding).
T1 construct: expressed in transfected cells; host or cells: CHO-K1 cells, electroporated with plasmid pCKR5 (pcDNA3.1 backbone), geneticin-selected (CHO/CCR5)
Method: Cloning of CCR5 gene was carried out by PCR (polymerase chain reaction) from human spleen cDNA. With using 0.5 ng of spleen cDNA (Toyobo, QUICK-Clone cDNA) as template, PCR was performed in DNA Thermal Cycler 480 (Perkin-Elmer) (reaction conditions: 30 cycles of 95° C. for 1 minute, 60° C. for 1 minute, and 75° C. for 5 minutes) by adding primer set, 5'-[…]-3' (25 pmol) and 5'-[…]-3' (25 pmol), which were designed referring to nucleotide sequence of CCR5 gene reported by Samson et al. (Biochemistry, 35(11), 3362-3367 (1996)) and by using TaKaRa EX Taq (TakaraShuzo). The resultant PCR product was subjected to agarose gel. electrophoresis to collect about 1.0 kb DNA fragment, which was subjected to Original TA Cloning Kit (Funakoshi) to carry out cloning of CCR5 gene.
The plasmid obtained in the above (1) was digested with restriction enzymes XbaI (Takara Shuzo) and BamHI (Takara Shuzo) and subjected to agarose gel electrophoresis to collect about 1.0 kb DNA fragment. The DNA fragment was mixed with plasmid pcDNA3.1 (Funakoshi) for expression in animal cells, said plasmid being digested with XbaI and BamHI, and they were ligated with DNA Ligation Kit Ver.2 (Takara Shuzo). The resulting plasmid was subjected to transformation of competent cell of E. coli JM109 (Takara Shuzo) to obtain plasmid pCKR5.
CHO-K1 cells were grown in 750 ml of tissue culture flask (Becton Dickinson) using Ham's F12 medium (Nihon Pharmaceutical) containing 10% fetal calf serum (Life Tech Oriental) and took off with 0.5 g/L trypsin-0.2 g/L EDTA (Life Tech Oriental). The cells were washed with PBS (Life Tech Oriental), centrifuged (1000 rpm, 5 minutes), and suspended in PBS. With using Gene Pulser (Bio-Rad Laboratories), DNA was introduced into the cells under the conditions shown below. That is, to the cuvette of 0.4 cm gap were added 8×10^6 cells and 10 μg of plasmid pCKR5 for expression of human CCR5, and electroporation was carried out under 0.25 kV of voltage and 960 μF of capacitance. The cells were transferred into Ham's F12 medium (Nihon Pharmaceutical) containing 10% fetal calf serum, and cultivated for 24 hours. The cells were again took off and centrifuged, and suspended in Ham's F12 medium (Nihon Pharmaceutical) containing 10% fetal calf serum and 500 μg/ml of geneticin (Life Tech Oriental). The suspension was diluted to give 10^4 cells/ml of the suspension, which was inoculated on 96 well plate (Becton Dickinson) to give geneticin resistant cells. The resulting geneticin resistant cells were cultivated in 96 well plate (Becton Dickinson), and cells expressing CCR5 were selected from the geneticin resistant cells. That is, in assay buffer (Ham's F12 medium containing 0.5% BSA and 20 mM HEPES (Wako Pure Chemical, pH7.2) to which was added 200 pM of [^125 I]-RANTES (Amersham) as ligand, binding reaction was carried out at room temperature for 40 minutes, and the buffer was washed with cooled PBS. To the buffer was added 50 μl/well of 1M NaOH, and the mixture was stirred. Radioactivity was determined with γ-counter to select CHO/CCR5 cells which specifically bind to the ligand.
The CHO/CCR5 were inoculated on 96 well microplate (5×10^4 cells/well) and cultivated for 24 hours. The medium was removed by means of suction, and to each well was added assay buffer containing Test Compound (1 μM) and then 100 pM of [^125 I]-RANTES (Amersham) as ligand. Binding assay was carried out at room temperature for 40 minutes, and assay buffer was removed by means of suction. Each well was washed twice with cooled PBS, and 200 μl of Microscint-20 (Packard Instrument, Inc.) was added to each well. Radio-activity was determined with Top-Count Micro Scintillation Counter (Packard Instrument, Inc.).
According to the method described above, inhibition rate of Test Compound (whose number is referred to in the following Examples) to CCR5 binding.

T1 sequence (P51681 whole entry): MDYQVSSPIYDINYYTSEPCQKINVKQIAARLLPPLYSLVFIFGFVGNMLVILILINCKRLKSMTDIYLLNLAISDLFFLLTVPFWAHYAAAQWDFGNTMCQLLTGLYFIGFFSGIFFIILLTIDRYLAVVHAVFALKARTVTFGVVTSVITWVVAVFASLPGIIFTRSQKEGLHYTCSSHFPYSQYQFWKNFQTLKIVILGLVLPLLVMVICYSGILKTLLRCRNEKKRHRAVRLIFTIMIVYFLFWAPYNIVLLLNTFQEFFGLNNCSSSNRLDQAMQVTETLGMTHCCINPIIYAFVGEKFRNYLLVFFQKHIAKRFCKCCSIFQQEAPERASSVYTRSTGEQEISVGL

Question: Which inhibition at 1 µM does the source give for `CCOc1ccc(-c2ccc3c(c2)C=C(C(=O)Nc2ccc(CN(C)C4CCOCC4)cc2)CCS3(=O)=O)cc1` [Compound 4, 7-(4-ethoxyphenyl)-N-[4-[N-methyl-N-(tetrahydropyran-4-yl)aminomethyl]phenyl]-1,1-dioxo-2,3-dihydro-1-benzothiepine-4-carboxamide] here?
Answer: The inhibition at 1 µM was 91%.

Question: With `CCCc1ccc(-c2ccc3c(c2)C=C(C(=O)Nc2ccc(CN(C)C4CCOCC4)cc2)CCS3(=O)=O)cc1` [Compound 27, N-[4-[N-methyl-N-(tetrahydropyran-4-yl)aminomethyl]phenyl]-7-(4-propylphenyl)-1,1-dioxo-2,3-dihydro-1-benzothiepine-4-carboxamide] as the compound, how does the inhibition at 1 µM read?
Answer: Its inhibition at 1 µM is 100%.

Question: `CCCOc1ccc(-c2ccc3c(c2)C=C(C(=O)Nc2ccc(CN(C)C4CCOCC4)cc2)CCS3(=O)=O)cc1` [Compound 29, N-[4-[N-methyl-N-(tetrahydropyran-4-yl)aminomethyl]phenyl]-7-(4-propoxyphenyl)-1,1-dioxo-2,3-dihydro-1-benzothiepine-4-carboxamide] was tested. Which inhibition at 1 µM did it give?
Answer: The inhibition at 1 µM was 100%.

Question: How did the inhibition at 1 µM turn out when `CCCCOc1ccc(-c2ccc3c(c2)C=C(C(=O)Nc2ccc(CN(C)C4CCOCC4)cc2)CCS3(=O)=O)cc1` [Compound 30, 7-(4-butoxyphenyl)-N-[4-[N-methyl-N-(tetrahydropyran-4-yl)aminomethyl]phenyl]-1,1-dioxo-2,3-dihydro-1-benzothiepine-4-carboxamide] was run?
Answer: Its inhibition at 1 µM is 99%.

Question: For `CCSc1ccc(-c2ccc3c(c2)C=C(C(=O)Nc2ccc(CN(C)C4CCOCC4)cc2)CCS3(=O)=O)cc1` [Compound 44, 7-[(4-ethylthio)phenyl]-N-[4-[N-methyl-N-(tetrahydropyran-4-yl)aminomethyl]phenyl]-1,1-dioxo-2,3-dihydro-1-benzothiepine-4-carboxamide], which inhibition at 1 µM is on record?
Answer: Its inhibition at 1 µM is 96%.

Question: Which inhibition at 1 µM does the source give for `CCN(CC)c1ccc(-c2ccc3c(c2)C=C(C(=O)Nc2ccc(CN(C)C4CCOCC4)cc2)CCS3(=O)=O)cc1` [Compound 54, 7-(4-diethylaminophenyl)-N-[4-[[N-methyl-N-(tetrahydropyran-4-yl)amino]methyl]phenyl]-1,1-dioxo-2,3-dihydro-1-benzothiepine-4-carboxamide] here?
Answer: The inhibition at 1 µM was 99%.

Question: For `CCCOCCOc1ccc(-c2ccc3c(c2)C=C(C(=O)Nc2ccc(CN(C)C4CCOCC4)cc2)CCS3(=O)=O)cc1OCC` [Compound 73, 7-[3-ethoxy-4-(2-propoxyethoxy)phenyl]-N-[4-[[N-methyl-N-(tetrahydropyran-4-yl)amino]methyl]phenyl]-1,1-dioxo-2,3-dihydro-1-benzothiepine-4-carboxamide], which inhibition at 1 µM is on record?
Answer: The inhibition at 1 µM was 94%.

Question: With `CCCOCCOc1ccc(-c2ccc3c(c2)C=C(C(=O)Nc2ccc(CN(C)C4CCOCC4)cc2)CCS3(=O)=O)cc1Cl` [Compound 74, 7-[3-chloro-4-(2-propoxyethoxy)phenyl]-N-[4-[[N-methyl-N-(tetrahydropyran-4-yl)amino]methyl]phenyl]-1,1-dioxo-2,3-dihydro-1-benzothiepine-4-carboxamide] as the compound, how does the inhibition at 1 µM read?
Answer: Its inhibition at 1 µM is 94%.

Question: With `CCCOCCOc1ccc(-c2ccc3c(c2)C=C(C(=O)Nc2ccc(CN(C)C4CCOCC4)cc2)CCS3(=O)=O)cc1C` [Compound 75, 7-[3-methyl-4-(2-propoxyethoxy)phenyl]-N-[4-[[N-methyl-N-(tetrahydropyran-4-yl)amino]methyl]phenyl]-1,1-dioxo-2,3-dihydro-1-benzothiepine-4-carboxamide] as the compound, how does the inhibition at 1 µM read?
Answer: Its inhibition at 1 µM is 95%.

Question: `CCOCCOc1ccc(-c2ccc3c(c2)C=C(C(=O)Nc2ccc(CN(C)C4CCOCC4)cc2)CCS3(=O)=O)cc1` [Compound 84, 7-[4-(2-ethoxyethoxy)phenyl]-N-[4-[[N-methyl-N-(tetrahydropyran-4-yl)amino]methyl]phenyl]-1,1-dioxo-2,3-dihydro-1-benzothiepine-4-carboxamide] was tested. Which inhibition at 1 µM did it give?
Answer: Its inhibition at 1 µM is 97%.

Question: With `CCCOCCOc1ccc(-c2ccc3c(c2)C=C(C(=O)Nc2ccc(CN(C)C4CCOCC4)cc2)CCS3(=O)=O)cc1` [Compound 97, N-[4-[[N-methyl-N-(tetrahydropyran-4-yl)amino]methyl]phenyl]-7-[4-(2-propoxyethoxy)phenyl]-1,1-dioxo-2,3-dihydro-1-benzothiepine-4-carboxamide] as the compound, how does the inhibition at 1 µM read?
Answer: The inhibition at 1 µM was 92%.

Question: How did the inhibition at 1 µM turn out when `CC(C)OCCOc1ccc(-c2ccc3c(c2)C=C(C(=O)Nc2ccc(CN(C)C4CCOCC4)cc2)CCS3(=O)=O)cc1` [Compound 111, 7-[4-(2-isopropoxyethoxy)phenyl]-N-[4-[[N-methyl-N-(tetrahydropyran-4-yl)amino]methyl]phenyl]-1,1-dioxo-2,3-dihydro-1-benzothiepine-4-carboxamide] was run?
Answer: The inhibition at 1 µM was 95%.

Question: For `CCOCCCc1ccc(-c2ccc3c(c2)C=C(C(=O)Nc2ccc(CN(C)C4CCOCC4)cc2)CCS3(=O)=O)cc1` [Compound 123, 7-[4-(3-ethoxypropyl)phenyl]-N-[4-[[N-methyl-N-(tetrahydro-2H-pyran-4-yl)amino]methyl]phenyl]-1,1-dioxo-2,3-dihydro-1-benzothiepine-4-carboxamide], which inhibition at 1 µM is on record?
Answer: Its inhibition at 1 µM is 94%.

Question: `CCOCCOc1c(C)cc(-c2ccc3c(c2)C=C(C(=O)Nc2ccc(CN(C)C4CCOCC4)cc2)CCS3(=O)=O)cc1C` [Compound 124, 7-[4-(2-ethoxyethoxy)-3,5-dimethylphenyl]-N-[4-[[N-methyl-N-(tetrahydro-2H-pyran-4-yl)amino]methyl]phenyl]-1,1-dioxo-2,3-dihydro-1-benzothiepine-4-carboxamide] was tested. Which inhibition at 1 µM did it give?
Answer: The inhibition at 1 µM was 97%.

Question: With `CCCOc1ccc(-c2ccc3c(c2)C=C(C(=O)Nc2ccc(CN(C)C4CCOCC4)cc2)CCS3(=O)=O)cc1OCC` [Compound 125, 7-(3-ethoxy-4-propoxyphenyl)-N-[4-[[N-methyl-N-(tetrahydro-2H-pyran-4-yl)amino]methyl]phenyl]-1,1-dioxo-2,3-dihydro-1-benzothiepine-4-carboxamide] as the compound, how does the inhibition at 1 µM read?
Answer: Its inhibition at 1 µM is 92%.

Question: For `CCOCCOc1ccc(-c2ccc3c(c2)C=C(C(=O)Nc2ccc(CN(C)C4CCOCC4)cc2)CCS3(=O)=O)cc1C` [Compound 129, 7-[4-(2-ethoxyethoxy)-3-methyl-phenyl]-N-[4-[[N-methyl-N-(tetrahydropyran-4-yl)amino]methyl]phenyl]-1,1-dioxo-2,3-dihydro-1-benzothiepine-4-carboxamide], which inhibition at 1 µM is on record?
Answer: Its inhibition at 1 µM is 95%.

The compounds below were run on HIV-1 BA-L (assay: Inhibitory effect on HIV-1 infection to MAGI-CCR5 cell (β-galactosidase activity)). Conditions: 100 μl of medium containing 1.6 μM Test Compound plus 100 μl of medium containing 300PFU HIV-1 BA-L; MAGI-CCR5 cells; 37° C., 2 days.
Format: cell-based
Method: The plasmid where β-galactosidase gene was ligated downstream of HIV-1 LTR was introduced into CD4 positive HeLa cell, to which human CCR5 was further introduced to obtain transformant MAGI-CCR5. By using said transformant MAGI-CCR5, degree of HIV-1 infection was calculated from β-galactosidase activity (blue color due to decomposition of 5-bromo-4-chloro-3-indolyl-β-D-galactopyranoside). Specifically, MAGI-CCR5 cells were suspended in DMEM medium containing 10% serum to prepare 5×10^4 cells/ml suspension. To each well of 96 well plate was inoculated 200 μl of the suspension, and the cells were cultivated at 37° C. overnight. The medium was removed by means of suction, and to the residue was added 100 μl of the above medium containing 1.6 μM of Test Compound and 100 μl of the above medium containing 300PFU of HIV-1 BA-L cells. The cells were cultivated at 37° C. for 2 days. The medium was removed by means of suction. To the residue was added 200 μl of cell fixative (PBS containing 1% formaldehyde and 0.2% glutaraldehyde), and the mixture was allowed to stand at room temperature for 5 minutes and washed twice with PBS. To the mixture was added 100 μl of staining solution (PBS containing […] and 0.4 mg/ml X-gal), and the mixture was allowed to stand at 37° C. for 50 minutes and washed twice with PBS. The number of blue cells was counted by microscope and defined as the number of cells infected with HIV-1. According to this method, inhibition rate on HIV-1 infection was determined.

Question: `CCCOc1ccc(-c2ccc3c(c2)C=C(C(=O)Nc2ccc(CN(C)C4CCOCC4)cc2)CCS3(=O)=O)cc1` [Compound 29, N-[4-[N-methyl-N-(tetrahydropyran-4-yl)aminomethyl]phenyl]-7-(4-propoxyphenyl)-1,1-dioxo-2,3-dihydro-1-benzothiepine-4-carboxamide] was tested. Which “Inhibition Rate (HIV-1 infection)” value did it give?
Answer: The value was 91%.

Question: With `CCCCOc1ccc(-c2ccc3c(c2)C=C(C(=O)Nc2ccc(CN(C)C4CCOCC4)cc2)CCS3(=O)=O)cc1` [Compound 30, 7-(4-butoxyphenyl)-N-[4-[N-methyl-N-(tetrahydropyran-4-yl)aminomethyl]phenyl]-1,1-dioxo-2,3-dihydro-1-benzothiepine-4-carboxamide] as the compound, how does the “Inhibition Rate (HIV-1 infection)” value read?
Answer: The value was 91%.

Question: Which “Inhibition Rate (HIV-1 infection)” value does the source give for `CCCOCCOc1ccc(-c2ccc3c(c2)C=C(C(=O)Nc2ccc(CN(C)C4CCOCC4)cc2)CCS3(=O)=O)cc1` [Compound 97, N-[4-[[N-methyl-N-(tetrahydropyran-4-yl)amino]methyl]phenyl]-7-[4-(2-propoxyethoxy)phenyl]-1,1-dioxo-2,3-dihydro-1-benzothiepine-4-carboxamide] here?
Answer: Its value is 87%.

Reference: patent US6235771A, “Anilide derivative, production and use thereof” (Takeda Chemical Industries, Ltd., priority 1998, dated 2001)
